This is an account of results in publication PMC11094793, “Discovery of LLC0424 as a Potent and Selective in Vivo NSD2 PROTAC Degrader” (Journal of Medicinal Chemistry, 2024).

One experiment relates to RPMI-8402 cells. Kind of experiment: Colony formation in soft agar. Particulars: 30 days. In kind it is cell-based, human. On the procedure:
Colony formation in soft agar was conducted in 12-well plates, with the bottom layer containing 750 μL of 0.8% agarose in 10% FBS/cell media and the top layer containing 0.4% agarose (SEM cells or RPMI-8402 cells). LLC0424 was added every 3 days to the liquid layer on top agarose to reach a final concentration of 2 μM. At the 30 days of treatment, the cells were stained with iodonitrotetrazolium chloride (INT) by adding 500 μL 1× INT PBS solution into each well. After the staining, images were taken using brightfield microscope and plate scan was conducted using Epson Perfection V700 Photo. Colony number counting was performed using ImageJ.

The next experiment addresses T1, GSPT1 (Homo sapiens, UniProt P15170).
T1 construct: endogenous in cells; host or cells: RPMI-8402, SEM, VCaP
The experiment is described as follows: GSPT1 level by proteomics and immunoblotting. In kind it is cell-based. The note with it: 2 μM. On the procedure:
We conducted a global proteomic assay using tandem mass tags (TMT) labeled mass-spectrometry to unbiasedly quantify the protein change upon LLC0424 treatment in VCaP and RPMI-8402 cells. […] We further used SEM cell line to cross-validate the selectivity of LLC0424 for NSD2 over NSD1 and NSD3 as well as CRBN neo-substrates IKZF1, IKZF3, GSPT1, and CK-1α using immunoblotting. […] When we increased the treatment time of LLC0424 in SEM cells, we observed mild decrease of GSPT1 from 12 h (SI, Figure S3F).
NSD2 is the primary methyltransferase that transfers dimethyl to H3K36 in ALL with NSD2 gain-of-function mutation. Therefore, the effects of LLC0424 on H3K36me2 was evaluated in SEM and RPMI-8402 cells. […] Meanwhile, LLC0424 treatment also led to downregulation of H3K36Me2 in RPMI-8402 cells within 24 h (Figure 6B). […] We also conducted a colony formation assay to evaluate the effect of LLC0424 on the stem cell-like property of the leukemia cells. […] As LLC0424 leads to strong degradation of both NSD2-L and NSD2-S, the phenotypic changes upon LLC0424 treatment result from complete inactivation of NSD2 activity, including adaptor-like function of NSD2-S and SET-domain dependent enzymatic function of NSD2-L. The specific contributions of NSD2 isoforms warrant future investigation. To characterize the genes affected by LLC0424 treatment, we performed global transcriptome analysis of SEM cells treated by DMSO, LLC0424, or LLC0424N. LLC0424 treatment led to significant changes in the transcriptome of SEM cells with over 326 differentially expressed genes. […] We further explored the contribution of NSD2 loss to the phenotype we observed in SEM cells. […] Still, whether and how LLC0424’s modest effect on GSPT1 contributes to the cytotoxic effects remains to be further explored. We also designed and synthesized the negative control LLC0877 bearing the warhead that is devoid of NSD2 binding (SI, Figure S5A).
After treatment, the cultured cells were collected and rinsed with phosphate-buffered saline (PBS) in room temperature. The cells were treated with RIPA buffers (ThermoFisher Scientific) supplemented with Halt Protease and Phosphatase Inhibitor Cocktail (ThermoFisher Scientific). After sonication and centrifugation, the total amount of protein in the cell lysates was measured by Pierce Bovine Serum Albumin Standard Pre-Diluted Set (ThermoFisher Scientific). After mixed with LDS-sample buffer (Invitrogen) supplemented with Sample Reducing Agent (Invitrogen) and heated in 70 °C for 10 min, equal amount of protein was loaded into NuPAGE 4–12%, Bis-Tris Protein Gel (ThermoFisher Scientific) or NuPAGE 3–8%, Tris-Acetate Protein Gel (ThermoFisher Scientific), and blotted with primary antibodies. […]
On the technique in general: Immunoblotting shows a protein as a band on a membrane.

Where [1] appears, read: compared to DMSO or LLC0424N-treated group.

T1 sequence (P15170 whole entry): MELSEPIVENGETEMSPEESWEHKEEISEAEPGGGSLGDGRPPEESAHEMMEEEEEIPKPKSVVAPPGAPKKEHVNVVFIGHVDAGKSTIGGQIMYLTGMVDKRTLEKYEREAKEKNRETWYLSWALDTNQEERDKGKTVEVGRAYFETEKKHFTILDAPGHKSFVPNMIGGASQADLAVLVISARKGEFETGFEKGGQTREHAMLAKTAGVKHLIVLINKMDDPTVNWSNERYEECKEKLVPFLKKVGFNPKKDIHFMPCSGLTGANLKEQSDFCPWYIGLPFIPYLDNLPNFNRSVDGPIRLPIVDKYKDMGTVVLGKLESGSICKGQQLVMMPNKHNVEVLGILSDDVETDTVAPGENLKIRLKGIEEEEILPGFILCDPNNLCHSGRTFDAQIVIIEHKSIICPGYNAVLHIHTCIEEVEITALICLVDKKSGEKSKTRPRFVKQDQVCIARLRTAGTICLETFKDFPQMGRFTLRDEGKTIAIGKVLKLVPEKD

As to `O=C1CCC(N2C(=O)c3ccc(N4CCC(NC(=O)c5ccc(NC(=O)c6ccc(CN(C(=O)c7ccc8c(c7)OCC(=O)N8)C7CC7)cc6)cc5)CC4)cc3C2=O)C(=O)N1` (stereo not drawn) [compound 10l, N-Cyclopropyl-N-(4-((4-((1-(2-(2,6-dioxopiperidin-3-yl)-1,3-dioxoisoindolin-5-yl)piperidin-4-yl)carbamoyl)phenyl)carbamoyl)benzyl)-3-oxo-3,4-dihydro-2H-benzo[b][1,4]oxazine-7-carboxamide], the “formation of cell colonies” value in the experiment on RPMI-8402 cells (2 μM, INT staining) was “significantly reduced the formation of cell colonies”. Further, in the experiment on RPMI-8402 cells (setting [1]), the colony area result is given as “obviously smaller colonies” and the colony numbers result was “significantly fewer cell colonies”. Moreover, the GSPT1 level entry at GSPT1 (RPMI-8402 cells, global proteomics and immunoblotting) was “significant decrease”. Moreover, on GSPT1 (SEM cells, from 12 h), the “GSPT1 level on longer treatment” value was “mild decrease”. On GSPT1 (SEM or VCaP cells, as long as 8 h), the GSPT1 degradation entry is “did not induce GSPT1 degradation”.
